# No end group written: not given here.
# Experiments:
# [1] = tested on: IgG in serum samples of patients recovered from SARS-COV-2 infection; type: binding, human
# [2] = target: S2 protein of SARS-COV-2 (Severe acute respiratory syndrome coronavirus 2, UniProt P0DTC2)
# [3] = target: binding between ACE2 and RBD (Severe acute respiratory syndrome coronavirus 2, UniProt P0DTC2); conditions: for inhibition of the binding between ACE2 and RBD: serum of mice sensitized with conjugate, FIG. 2, FIG. 3(A)
# [4] = target: RBD protein of SARS-COV-2 (Severe acute respiratory syndrome coronavirus 2, UniProt P0DTC2)
Sequence,reaction with antibodies in serum samples obtained from the 5 patients [1],S2 recognizing ability of mouse serum IgG [2],RBD recognition ability of mouse serum IgG [4],also measured
ASVVNIQKEIDRLNEVAKNL [#114],strongly react,high,,
SNLKPFERDISTEIYQAGSTPC [#11],,,high,"inhibitory ability on ACE2-RBD binding compared with positive control ([3]; mouse serum diluted to 100-fold, positive control mouse anti-RBD polyclonal antibody, FIG. 2): equivalent to that of the positive control; inhibitory effects on ACE2-RBD binding compared with serum of recovered patients ([3]; versus the 4 patients other than patient A, FIG. 3(B)): substantially equivalent"
DRLNEVAKNLNESLIDLQE (also: conjugate) [#115],strongly react,high,,
NATRFASVYAWNRKRISNC [#3],,,high,inhibition of the binding between ACE2 and RBD [3]: inhibit the binding between ACE2 and RBD
EVRQIAPGQTGKIADYNYKLPD [#8],,,high,
ELDSFKEELDKYFKNHTS (also: conjugate) [#111],strongly react,high,,
YGVSPTKLNDLCF (also: conjugate) [#5],,,without the RBD protein recognizing ability,inhibition of the binding between ACE2 and RBD [3]: substantially no inhibitory activity was observed
